These results are taken from US12709745B2 (priority 2012, dated 2026).

For data set [1], the target named is recombinant human WT SOD1 (Homo sapiens, UniProt P00441). Format: biochemical.
The next data set deals with SOD1 (Homo sapiens, UniProt P00441). The format is biochemical.
For data set [2], the target named is T1, DJ-1 (Homo sapiens, UniProt Q99497). Format: biochemical.
Data set [3] addresses T1, DJ-1. Format: binding.
Another data set concerns the target WT DJ-1 (Homo sapiens, UniProt Q99497). The format is biochemical.
The conditions of data set [4]: in vivo; cited from earlier work.

Chain of WT DJ-1 (Q99497 whole entry): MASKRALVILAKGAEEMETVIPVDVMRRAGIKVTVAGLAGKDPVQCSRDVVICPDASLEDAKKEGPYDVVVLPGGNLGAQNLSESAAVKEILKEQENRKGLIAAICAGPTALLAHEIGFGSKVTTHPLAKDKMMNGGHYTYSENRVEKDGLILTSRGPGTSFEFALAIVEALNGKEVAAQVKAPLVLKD
T1 sequence (Q99497 whole entry): as above
Chain of recombinant human WT SOD1 (P00441 whole entry): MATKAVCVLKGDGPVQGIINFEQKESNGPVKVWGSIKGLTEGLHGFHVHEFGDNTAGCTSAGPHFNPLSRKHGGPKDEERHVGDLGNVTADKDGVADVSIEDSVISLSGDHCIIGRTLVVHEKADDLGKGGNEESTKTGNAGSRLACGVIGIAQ
Chain of SOD1 (P00441 whole entry): as above

`OCC1(CO)CSSC1` [1,2-dithiolane-4,4-dimethanol]: the “covalent dimerization of SOD1” value in data set [1] is reported as “capable of covalently dimerizing SOD1”.
As for `O=C1C=CC(=O)N1CCSSCCN1C(=O)C=CC1=O` [DTME, dithio-bismaleimidocthane], the “cross-linking of SOD1 monomers” value on SOD1 is “able to cross-link SOD1 monomers”.
In the case of `[O-][S+]1CCCCS1` (stereo not shown) [NSC56224, 1-oxo-1,2-dithiane], at DJ-1 [2], the “site of covalent linkage in DJ-1 dimer” value is given as “covalently linked DJ-1 dimers at Cys53”. The “denaturation temperature of DJ-1” value at DJ-1 [3] is “increase the measured denaturation temperature of DJ-1”. The “covalent dimerization of DJ-1” value at WT DJ-1 is “covalent dimerizer of DJ-1”. Besides, in data set [1], the “covalent dimerization of SOD1” value is listed as “capable of covalently dimerizing SOD1” and the “extent of cross-linking of SOD1 monomers” value was “able to cross-link the majority of SOD1 monomers in the sample”.
For the compound `NC(=O)NN=C1CSSC1` [NSC72268], the “denaturation temperature of DJ-1” value at DJ-1 [3] was “increase the measured denaturation temperature of DJ-1”. At WT DJ-1, the “covalent dimerization of DJ-1” value is “specific covalent dimerizer of DJ-1”.
As to `CC(C)C[C@H](NC(=O)[C@H](Cc1ccccc1)NC(=O)c1cnccn1)B(O)O` [bortezomib], the LD100 in data set [4] is < 0.25 mg/kg.
